As a reminder, the IC50 is the concentration that inhibits the measured activity by half.

IC50 data for 25 compounds are collected here from patent publication US11337970B2, “Inhibitors of indoleamine 2,3-dioxygenase and methods of their use” (BRISTOL-MYERS SQUIBB COMPANY, priority 2016, dated 2022).

One test has as its target T1, human IDO1 (Homo sapiens, UniProt P14902).
T1 construct: expressed in transfected cells
Put plainly: IDO inhibition assay in HEK293 cells stably expressing human IDO1 (kynurenine, Ehrlich reagent). The class given is cell-based. The following applies: 20 hours incubation, absorbance at 490 nm, read-out: IDO1 HEK Human IC50. The procedure:
HEK293 cells were transfected with a pCDNA-based mammalian expression vector harboring human IDO1 cDNA (NM 002164.2) by electroporation. They were cultured in medium (DMEM with 10% FBS) containing 1 mg/ml G418 for two weeks. Clones of HEK293 cells that stably expressed human IDO1 protein were selected and expanded for IDO inhibition assay.
The human IDO1/HEK293 cells were seeded at 10,000 cells per 50 μL per well with RPMI/phenol red free media contains 10% FBS in a 384-well black wall clear bottom tissue culture plate (Matrix Technologies LLC) 100 nL of certain concentration of compound was then added to each well using ECHO liquid handling systems. The cells were incubated for 20 hours in 37° C. incubator with 5% CO2.
The compound treatments were stopped by adding trichloroacetic acid (Sigma-Aldrich) to a final concentration at 0.2%. The cell plate was further incubated at 50° C. for 30 minute. The equal volume supernatant (20 μL) and 0.2% (w/v) Ehrlich reagent (4-dimethylaminobenzaldehyde, Sigma-Aldrich) in glacial acetic acid were mixed in a new clear bottom 384-well plate. This plate was then incubated at room temperature for 30 minute. The absorbance at 490 nm was measured on Envision plate reader.
Compound IC50 values were calculated using the counts of 500 nM of a reference standard treatment as one hundred percent inhibition, and counts of no compound but DMSO treatment as zero percent inhibition.

The target of test [1] is T2, indoleamine 2,3-dioxygenase (IDO) (Homo sapiens, UniProt P14902).
T2 construct: host or cells: HeLa cells stimulated with IFNγ (25 ng/mL)
Put plainly: HeLa cell-based indoleamine 2,3-dioxygenase (IDO) assay (kynurenine production). The following applies: HeLa cells, IFNγ 25 ng/mL, 48 hour incubation, absorbance at 480 nm. Here is the method:
Assessment of inhibitor activity in HeLa cell-based indoleamine 2,3-dioxygenase (IDO) assay:
HeLa (ATCC® CCL-2) cells were obtained from the ATCC® and cultured in Dulbecco's Modified Eagle Medium supplemented with 4.5 g/L glucose, […] (#10-013-CV, Corning), 2 mM L-alanyl-L-glutamine dipeptide (#35050-061, Gibco), 100U/mL penicillin, 100 μg/mL streptomycin (#SV30010, HyClone) and 10% fetal bovine serum (#SH30071.03 HyClone). Cells were maintained in a humidified incubator at 37° C. in 5% CO2.
IDO activity was assessed as a function of kynurenine production as follows: HeLa cells were seeded in a 96-well culture plate at a density of 5,000 cells/well and allowed to equilibrate overnight. After 24 hours, the media was aspirated and replaced with media containing IFNγ (#285-IF/CF, R&D Systems) at a final concentration of 25 ng/mL. A serial dilution of each test compound was added to the cells in a total volume of 200 μL of culture medium. After a further 48 hour incubation, 170 μL of supernatant was transferred from each well to a fresh 96-well plate. 12.1 μL of 6.1N trichloroacetic acid (#T0699, Sigma-Aldrich) was added to each well and mixed, followed by incubation at 65° C. for 20 minutes to hydrolyze N-formylkynurenine, the product of indoleamine 2,3-dioxygenase, to kynurenine. The reaction mixture was then centrifuged for 10 mins at 500×g to sediment the precipitate. 100 μL of the supernatant was transferred from each well to afresh 96-well plate. 100 μl of 2% (w/v) p-dimethylaminobenzaldehyde (#15647-7, Sigma-Aldrich) in acetic acid (#A6283, Sigma-Aldrich) was added to each well mixed and incubated at room temperature for 20 mins. Kynurenine concentrations were determined by measuring absorbance at 480 nm and calibrating against an L-kynurenine (#K8625, Sigma-Aldrich) standard curve using a SPECTRAMAX® M2e microplate reader (Molecular Devices). The percentage activity at each inhibitor concentration was determined and IC50 values assessed using nonlinear regression.

T2 sequence (P14902 whole entry): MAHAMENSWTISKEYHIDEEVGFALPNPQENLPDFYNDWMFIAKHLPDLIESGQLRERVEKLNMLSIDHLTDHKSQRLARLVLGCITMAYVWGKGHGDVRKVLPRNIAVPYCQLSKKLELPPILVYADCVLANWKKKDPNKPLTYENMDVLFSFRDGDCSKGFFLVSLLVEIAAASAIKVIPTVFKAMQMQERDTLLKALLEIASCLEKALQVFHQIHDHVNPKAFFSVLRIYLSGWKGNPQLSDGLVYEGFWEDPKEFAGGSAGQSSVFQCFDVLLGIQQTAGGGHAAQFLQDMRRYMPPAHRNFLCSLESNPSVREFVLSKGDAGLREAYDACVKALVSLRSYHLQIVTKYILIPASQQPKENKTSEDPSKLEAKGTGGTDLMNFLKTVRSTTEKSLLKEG
T1 sequence (P14902 whole entry): as above

As for `CCC(c1nc2ccc(Cl)cc2[nH]1)[C@H]1CC[C@H](Oc2ccnc3ccccc23)CC1` (single isomer, unassigned) [Example 13-1, 4-(((trans)-4-(1-(6-chloro-1H-benzo[d]imidazol-2-yl)propyl)cyclohexyl)oxy)quinoline], the values for the IC50 (at human IDO1; in test [1]) were 0.0041 µM and 0.0057 µM, respectively.

On to `C[C@@H](Nc1nc2ccccc2[nH]1)[C@H]1CC[C@@H](c2ccnc3ccc(F)cc32)CC1` [Example 12, N-((R)-1-((cis)-4-(6-fluoroquinolin-4-yl)cyclohexyl)ethyl)-1H-benzo[d]imidazol-2-amine], for which, at human IDO1, the IC50 was 0.139 µM.

Consider `COc1ccc2nc(N[C@H](C)[C@H]3CC[C@@H](c4ccnc5ccc(F)cc54)CC3)[nH]c2c1` [Example 9, N-((R)-1-((cis)-4-(6-fluoroquinolin-4-yl)cyclohexyl)ethyl)-6-methoxy-1H-benzo[d]imidazol-2-amine], for which the IC50 at human IDO1 amounted to 0.263 µM.

For `CC[C@H](c1nc2ccc(Cl)cc2[nH]1)[C@H]1CC[C@@H](c2ccnc3ccc(F)cc32)CC1` (single isomer, unassigned) [Example 15-2, 4-(4-(1-(6-chloro-1H-benzo[d]imidazol-2-yl)propyl)cyclohexyl)-6-fluoroquinoline], on human IDO1, the IC50 was found to be 0.11 µM.

With `CCC(c1nc2ccc(Cl)cc2[nH]1)[C@H]1CC[C@@H](Oc2ccnc3ccccc23)CC1` (some centres unmarked) [Example 51, 4-(((1s,4s)-4-(1-(6-chloro-1H-benzo[d]imidazol-2-yl)propyl)cyclohexyl)oxy)quinoline], at human IDO1, the IC50 was 1.06 µM.

Take `C[C@@H](c1nc2ccc(Cl)cc2[nH]1)[C@H]1CC[C@@H](c2ccnc3ccc(F)cc32)CC1` [Example 2, 4-((cis)-4-((R)-1-(6-chloro-1H-benzo[d]imidazol-2-yl)ethyl)cyclohexyl)-6-fluoroquinoline]: the IC50 on human IDO1 was 0.0018 µM; in test [1] it was 0.0011 µM.

`C[C@@H](c1nc2ncc(Cl)cc2[nH]1)[C@H]1CC[C@@H](c2ccnc3ccc(F)cc32)CC1` [Example 6, 4-((cis)-4-((R)-1-(6-chloro-1H-imidazo[4,5-b]pyridin-2-yl)ethyl)cyclohexyl)-6-fluoroquinoline]: the IC50 on human IDO1 worked out at 0.007 µM; in test [1], 0.0045 µM.

On to `CCC(c1nc2ccc(Cl)cc2[nH]1)[C@H]1CC[C@@H](Oc2ccnc3ccccc23)CC1` (stereo partly drawn) [Example 14, 4-(((cis)-4-(1-(6-chloro-1H-benzo[d]imidazol-2-yl)propyl)cyclohexyl)oxy)quinoline], for which the IC50 on human IDO1 is 0.322 µM.

As for `C[C@@H](Nc1nc2ccc(Cl)cc2s1)[C@H]1CC[C@@H](c2ccnc3ccc(F)cc32)CC1` [Example 8, 6-chloro-N—((R)-1-((cis)-4-(6-fluoroquinolin-4-yl)cyclohexyl)ethyl)benzo[d]thiazol-2-amine], at human IDO1, the IC50 amounted to 0.73 µM.

On to `C[C@@H](Nc1nc2ccc(Cl)cc2o1)[C@H]1CC[C@@H](c2ccnc3ccc(F)cc32)CC1` [Example 11, 6-chloro-N-((R)-1-((cis)-4-(6-fluoroquinolin-4-yl)cyclohexyl)ethyl)benzo[d]oxazol-2-amine], for which the IC50 (on human IDO1; in test [1]) was 0.0409 µM in each case.

In the case of `C[C@@H](c1nc2cc3c(cc2[nH]1)OCO3)[C@H]1CC[C@@H](c2ccnc3ccc(F)cc32)CC1` [Example 4, 6-((R)-1-((cis)-4-(6-fluoroquinolin-4-yl)cyclohexyl)ethyl)-5H-[1,3]dioxolo[4′,5′:4,5]benzo[1,2-d]imidazole], the IC50 at human IDO1 was found to be 0.0015 µM.

Regarding `CC[C@H](c1nc2ccc(Cl)cc2[nH]1)[C@H]1CC[C@@H](c2ccnc3ccc(F)cc32)CC1` (single isomer, unassigned) [Example 15-1, 4-(4-(1-(6-chloro-1H-benzo[d]imidazol-2-yl)propyl)cyclohexyl)-6-fluoroquinoline], the IC50 at human IDO1 came out at 0.0406 µM.

As to `C[C@@H](Nc1nc2ccccc2s1)[C@H]1CC[C@@H](c2ccnc3ccc(F)cc32)CC1` [Example 10], the IC50 at human IDO1 worked out at 0.194 µM.

Turning to `C[C@@H](c1nc2ccccc2[nH]1)[C@H]1CC[C@@H](c2ccnc3ccc(F)cc32)CC1` [Example 1, 4-((cis)-4-((R)-1-(1H-benzo[d]imidazol-2-yl)ethyl)cyclohexyl)-6-fluoroquinoline], the IC50 on human IDO1 came to 0.0052 µM; in test [1] it was 0.0047 µM.

For the compound “(±)-Cis and trans-6-chloro-2-(1-(4-(2-(trifluoromethyl)pyridin-4-yl)cyclohexyl)ethyl)-1H-benzo[d]imidazole [Example 38]”, on human IDO1, the concentration for half-maximal inhibition (IC50) worked out at 0.0621 µM.

For `C[C@@H](c1nc2ccc(F)cc2[nH]1)[C@H]1CC[C@@H](c2ccnc3ccc(F)cc32)CC1` [Example 3, 6-fluoro-4-((cis)-4-((R)-1-(6-fluoro-1H-benzo[d]imidazol-2-yl)ethyl)cyclohexyl)quinoline], the IC50 at human IDO1 was 0.0027 µM; in test [1], 0.0015 µM.

With `CCC(c1nc2ccc(Cl)cc2[nH]1)[C@H]1CC[C@H](Oc2ccnc3ccccc23)CC1` (mixture of isomers) [Example 13, 4-(((trans)-4-(1-(6-chloro-1H-benzo[d]imidazol-2-yl)propyl)cyclohexyl)oxy)quinoline], on human IDO1, the IC50 worked out at 0.0034 µM.

For “(+/−)-Cis and trans-6-chloro-2-(1-(4-(2-(trifluoromethyl)pyridin-4-yl)cyclohexyl)propyl)-1H-benzo[d]imidazole [Example 36]”, the IC50 on human IDO1 was found to be 0.0261 µM.

Regarding `C[C@@H](c1nc2cnccc2[nH]1)[C@H]1CC[C@@H](c2ccnc3ccc(F)cc32)CC1` [Example 5, 4-((cis)-4-((R)-1-(1H-imidazo[4,5-c]pyridin-2-yl)ethyl)cyclohexyl)-6-fluoroquinoline], the IC50 on human IDO1 amounted to 0.105 µM.

Consider `CC[C@H](c1nc2ccc(Cl)cc2[nH]1)[C@H]1CC[C@@H](c2ccnc3ccc(F)cc32)CC1` (single isomer, unassigned) [Example 15-3, 4-(4-(1-(6-chloro-1H-benzo[d]imidazol-2-yl)propyl)cyclohexyl)-6-fluoroquinoline], for which the IC50 at human IDO1 was 0.0007 µM; in test [1] it was 0.0035 µM.

Consider `CC(c1nc2ccc(Cl)cc2[nH]1)C1CCC(c2ccnc3ccccc23)CC1` (single isomer, unassigned) [Example 16-1, (±)-4-(4-(1-(6-chloro-1H-benzo[d]imidazol-2-yl)ethyl)cyclohexyl)quinoline], for which the IC50 on human IDO1 was 0.0541 µM.

On to `CC(c1nc2ccc(Cl)cc2[nH]1)C1CCC(c2ccnc3ncccc23)CC1` (centres unmarked) [Example 35-1], for which, in test [1], inhibition was half-maximal at 1 µM (IC50).

Compound `CC[C@H](c1nc2ncc(Cl)cc2[nH]1)[C@H]1CC[C@@H](c2ccnc3ccc(F)cc32)CC1` (single isomer, unassigned) [Example 21-2, 4-(4-(1-(6-chloro-1H-imidazo[4,5-b]pyridin-2-yl)propyl)cyclohexyl)-6-fluoroquinoline] had an IC50 in test [1] of 1 µM.

Compound `COCC(c1nc2ccc(Cl)cc2[nH]1)[C@H]1CC[C@@H](c2ccnc3ccc(F)cc32)CC1` (mixture of isomers) [Example 19, (±)-4-((cis)-4-(1-(6-chloro-1H-benzo[d]imidazol-2-yl)-2-methoxyethyl)cyclohexyl)-6-fluoroquinoline] gave an IC50 in test [1] of 0.0038 µM.

Turning to `CCC(c1nc2ccc(Cl)cc2[nH]1)[C@H]1CC[C@@H](Oc2ccnc3ccccc23)CC1` (some centres unmarked) [Example 52, 4-(((1s,4s)-4-(1-(6-chloro-1H-benzo[d]imidazol-2-yl)propyl)cyclohexyl)oxy)quinoline], the IC50 on human IDO1 turned out to be 0.697 µM.
